Data: patent US11292799B2, “Substituted azetidine dihydrothienopyrimidines and their use as phosphodiesterase inhibitors” (UNION therapeutics A/S, priority 2017, dated 2022)

Legend:
[1] = biological target: human PDE4D catalytic domain (Homo sapiens (Human), UniProt Q08499); experiment: PDE4 assay (TR-FRET, cAMP cleavage); assay type: biochemical; details: read-out: PDE4 IC50 range
Experimental: The human PDE4D catalytic domain (UniProt no. Q08499 [[…]]) was incubated with a mixture of non-labelled cAMP (cyclic adenosine monophosphate) and fluorescein amidite (FAM) conjugated cAMP and titrated test or reference compound. Following brief incubation the enzymatic reaction was stopped by addition of binding buffer containing nanoparticles with immobilized trivalent metal ions capable of binding 1) AMP phospho groups and 2) terbium (Tb) donor fluorophores. Subsequent excitation of the Tb donor triggers time-resolved FRET to adjacent FAM acceptor molecules resulting in light emission. In the presence of a PDE4 inhibitor, AMP generation was reduced resulting in a lower fluorescence signal. The cAMP phosphodiester is not bound by the detection system.
The results were calculated as the molar concentrations resulting in 50% inhibition of the substrate cleavage compared to controls samples, and are expressed as IC50 (nM).

[2] = tested on: TNF-α release, human peripheral blood mononuclear cells (PBMC); experiment: TNF-α release in LPS-stimulated PBMC; assay type: cell-based; details: lipopolysaccharide stimulation for 18 hours, read-out: TNF-α IC50 range
Experimental: Human peripheral blood mononuclear cells (PBMC) were isolated from buffy coats. The blood is mixed with saline at a ratio of 1:1, and the PBMC were isolated using Lymphoprep Tubes™ (Nycomed, Norway). The PBMC were suspended in RPMI1640 with 0.5% human serum albumin, pen/strep and 2 mM L-glutamine at a concentration of 5×105 c/ml. The cells were pre-incubated for 30 minutes with the test compounds in 96 well tissue culture plates and stimulated for 18 hours with lipopolysaccharide […] (Sigma). TNF-α concentration in the supernatants was measured using homogeneous time-resolved fluorescence resonance (TR-FRET). The assay is quantified by measuring fluorescence at 665 nm (proportional to TNF-α concentration) and 620 nm (control).
Results were expressed as IC50 values calculated from inhibition curves using as positive controls the secretion in LPS stimulated wells and as negative controls the secretion in unstimulated cells.

Sequence of human PDE4D catalytic domain (Q08499 380-740 limits assumed): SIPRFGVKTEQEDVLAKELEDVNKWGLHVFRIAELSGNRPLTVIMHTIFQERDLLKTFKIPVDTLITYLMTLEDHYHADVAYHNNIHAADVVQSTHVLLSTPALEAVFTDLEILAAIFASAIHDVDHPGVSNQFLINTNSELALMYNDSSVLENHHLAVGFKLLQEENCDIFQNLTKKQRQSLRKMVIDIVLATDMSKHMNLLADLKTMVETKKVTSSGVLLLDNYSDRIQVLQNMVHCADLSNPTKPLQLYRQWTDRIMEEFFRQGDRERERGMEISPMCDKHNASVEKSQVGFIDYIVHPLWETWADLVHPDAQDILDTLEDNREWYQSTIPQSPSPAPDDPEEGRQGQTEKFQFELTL

Row | SMILES | IC50 [1] [nM] | IC50 [2] [nM]
1 | [O-][S+]1CCc2nc(N3CC(c4ccccc4)C3)nc(NC3CCOCC3)c21 (stereo in doubt) [Example 1, (R)-2-(3-Phenylazetidin-1-yl)-4-((tetrahydro-2H-pyran-4-yl)amino)-6,7-dihydrothieno[3,2-d]pyrimidine 5-oxide] | < 10 | < 10
2 | [O-][S+]1CCc2nc(N3CC(Oc4ccccc4)C3)nc(NC3CCOCC3)c21 (stereo in doubt) [Example 2, (R)-2-(3-Phenoxyazetidin-1-yl)-4-((tetrahydro-2H-pyran-4-yl)amino)-6,7-dihydrothieno[3,2-d]pyrimidine 5-oxide] | < 10 | < 10
3 | [O-][S+]1CCc2nc(N3CC(Oc4ccc(F)cc4)C3)nc(NC3CCOCC3)c21 (stereo in doubt) [Example 3, (R)-2-(3-(4-Fluorophenoxy)azetidin-1-yl)-4-((tetrahydro-2H-pyran-4-yl)amino)-6,7-dihydrothieno[3,2-d]pyrimidine 5-oxide] | < 10 | < 10
4 | [O-][S+]1CCc2nc(N3CC(c4ccc(F)cc4)C3)nc(NC34CC(C3)C4)c21 (stereo in doubt) [Example 9, (R)-4-(Bicyclo[1.1.1]pentan-1-ylamino)-2-(3-(4-fluorophenyl)azetidin-1-yl)-6,7-dihydrothieno[3,2-d]pyrimidine 5-oxide] | < 10 | < 10
5 | [O-][S+]1CCc2nc(N3CC(Oc4ccc(F)cc4)C3)nc(NC34CC(C3)C4)c21 (stereo in doubt) [Example 10, (R)-4-(Bicyclo[1.1.1]pentan-1-ylamino)-2-(3-(4-fluorophenoxy)azetidin-1-yl)-6,7-dihydrothieno[3,2-d]pyrimidine 5-oxide] | < 10 | < 10
6 | [O-][S+]1CCc2nc(N3CC(c4ccccc4)C3)nc(NC34CC(C3)C4)c21 (stereo in doubt) [Example 11, (R)-4-(Bicyclo[1.1.1]pentan-1-ylamino)-2-(3-phenylazetidin-1-yl)-6,7-dihydrothieno[3,2-d]pyrimidine 5-oxide] | < 10 | < 10
7 | [O-][S+]1CCc2nc(N3CC(c4ccccn4)C3)nc(NC34CC(C3)C4)c21 (stereo in doubt) [Example 12, (R)-4-(Bicyclo[1.1.1]pentan-1-ylamino)-2-(3-(pyridin-2-yl)azetidin-1-yl)-6,7-dihydrothieno[3,2-d]pyrimidine 5-oxide] | 10 to 50 | 10 to 50
8 | [O-][S+]1CCc2nc(N3CC(c4cccc(F)c4)C3)nc(NC34CC(C3)C4)c21 (stereo in doubt) [Example 13, (R)-4-(Bicyclo[1.1.1]pentan-1-ylamino)-2-(3-(3-fluorophenyl)azetidin-1-yl)-6,7-dihydrothieno[3,2-d]pyrimidine 5-oxide] | < 10 | < 10
9 | [O-][S+]1CCc2nc(N3CC(Oc4cccnc4)C3)nc(NC34CC(C3)C4)c21 (stereo in doubt) [Example 14, (R)-4-(Bicyclo[1.1.1]pentan-1-ylamino)-2-(3-(pyridin-3-yloxy)azetidin-1-yl)-6,7-dihydrothieno[3,2-d]pyrimidine 5-oxide] | < 10 | 10 to 50
10 | O=S1(=O)CCC(Nc2nc(N3CC(c4ccccc4)C3)nc3c2[S+]([O-])CC3)CC1 (stereo in doubt) [Example 17, (5R)—N-(1,1-Dioxothian-4-yl)-5-oxido-2-(3-phenylazetidin-1-yl)-6,7-dihydrothieno[3,2-d]pyrimidin-4-yl-amine] | – | < 10
11 | O=S1(=O)CC(Nc2nc(N3CC(c4ccccc4)C3)nc3c2[S@+]([O-])CC3)C1 [Example 4, (R)-3-((5-Oxido-2-(3-phenylazetidin-1-yl)-6,7-dihydrothieno[3,2-d]pyrimidin-4-yl)amino)thietane 1,1-dioxide] | – | 10 to 50
12 | COC(=O)N1CC[C@H](Nc2nc(N3CC(c4ccccc4)C3)nc3c2[S@+]([O-])CC3)C1 [Example 5, Methyl (3S)-3-(((5R)-5-oxido-2-(3-phenylazetidin-1-yl)-6,7-dihydrothieno[3,2-d]pyrimidin-4-yl)amino)pyrrolidine-1-carboxylate] | 10 to 50 | 10 to 50
13 | COC(=O)N1CC[C@@H](Nc2nc(N3CC(c4ccccc4)C3)nc3c2[S@+]([O-])CC3)C1 [Example 6, Methyl (3R)-3-(((5R)-5-Oxido-2-(3-phenylazetidin-1-yl)-6,7-dihydrothieno[3,2-d]pyrimidin-4-yl)amino)pyrrolidine-1-carboxylate] | < 10 | < 10
14 | COC(=O)N1CCC[C@@H](Nc2nc(N3CC(Oc4ccc(F)cc4)C3)nc3c2[S@+]([O-])CC3)C1 [Example 7, Methyl (3R)-3-(((5R)-2-(3-(4-Fluorophenoxy)azetidin-1-yl)-5-oxido-6,7-dihydrothieno[3,2-d]pyrimidin-4-yl)amino)piperidine-1-carboxylate] | < 10 | < 10
15 | COC(=O)N1CCC[C@H](Nc2nc(N3CC(Oc4ccc(F)cc4)C3)nc3c2[S@+]([O-])CC3)C1 [Example 8, Methyl (3S)-3-(((5R)-2-(3-(4-Fluorophenoxy)azetidin-1-yl)-5-oxido-6,7-dihydrothieno[3,2-d]pyrimidin-4-yl)amino)piperidine-1-carboxylate] | < 10 | < 10
16 | CC1(Nc2nc(N3CC(c4ccccn4)C3)nc3c2[S@+]([O-])CC3)CCC1 [Example 15, (R)-4-((1-Methylcyclobutyl)amino)-2-(3-(pyridin-2-yl)azetidin-1-yl)-6,7-dihydrothieno[3,2-d]pyrimidine 5-oxide] | < 10 | < 10
17 | CC1(Nc2nc(N3CC(c4cccnc4)C3)nc3c2[S@+]([O-])CC3)CCC1 [Example 16, (R)-4-((1-Methylcyclobutyl)amino)-2-(3-(pyridin-3-yl)azetidin-1-yl)-6,7-dihydrothieno[3,2-d]pyrimidine 5-oxide] | 10 to 50 | 10 to 50
